According to PMC12058161, “The plant matrix of Artemisia annua L. for the treatment of malaria: Pharmacodynamic and pharmacokinetic studies” (PLOS One, 2025):
“And” between values parts separate entries of the source, which are not always exact repeats. Equal entries are not always repeated.

Experiments:
[1] = male, Sprague Dawley, rat, in vivo, po, 352 mg/kg
in vivo = settings: male, Sprague Dawley, rat, po, 352 mg/kg
[2] = Stability of the five compounds in SD rat plasma (QC samples, UHPLC-ESI-MS/MS); type: in vitro ADME; settings: for stability, Accuracy (measured versus nominal concentration) / stability, mean ± SD (measured concentration): SD rat plasma, n=5
Experimental: The method was validated according to the US Food and Drug Administration (FDA) Bioanalytical Method Validation Guidance as follows: [1] specificity was assessed by analyzing blank plasma, blank plasma spiked with standard solutions and rat plasma samples after oral administration. Each calibration curve was plotted using the concentration of the standard solution as the horizontal coordinate and the ratio of analyte to internal standard peak area as the vertical coordinate. The lower limit of quantification (LLOQ) refers to the lowest concentration, which is typically 10 times the signal-to-noise ratio. It has an acceptable accuracy of ± 20% and a precision of less than 20% [3]. Quality Control (QC) samples (low, medium and high concentrations) were prepared for each analyte. Five samples were analyzed at each concentration level and three consecutive batches were determined to calculate the accuracy and precision of the method. Extraction recovery was assessed by the ratio of the average peak area of routinely prepared QC samples (low, medium, and high concentrations) to the post-extraction plasma sample. Likewise, matrix effect was assessed by the ratio of peak areas between post-extraction samples spiked with analytes and mobile phases spiked with the same concentration of analytes.

[3] = nominal 20 ng/mL, 3 freeze-thaw cycles
[4] = nominal 20 ng/mL, 7 days at -80°C
[5] = nominal 20 ng/mL, Room temperature 24h
[6] = nominal 1000 ng/mL, 3 freeze-thaw cycles
[7] = nominal 1000 ng/mL, 7 days at -80°C
[8] = nominal 1000 ng/mL, Room temperature 24h
[9] = nominal 5000 ng/mL, 3 freeze-thaw cycles
[10] = nominal 5000 ng/mL, 7 days at -80°C
[11] = nominal 5000 ng/mL, Room temperature 24h

## C=C1CC[C@@H]2[C@H]3[C@@H](CC[C@H]2C)[C@@H](C)C(=O)O[C@H]13 [ARTI, Arteannuin I]
[1]
  CL: 0.016 ± 0.006 L/h
  Vz: 0.114 ± 0.041 L
In vivo
  AUC(0-inf): 1390 ± 586 ng·h/mL
  AUC(0-t): 990 ± 284 ng·h/mL
In vivo; Cmax
  Cmax: 222 ± 46.4 ng/mL
In vivo; MRT(0-t)
  MRT last: 4.34 ± 0.957 h
In vivo; t1/2
  half-life: 5.14 ± 1.8 h
[2]; 3 freeze-thaw cycles, QC concentration 20 ng/mL
  Stability in plasma, measured concentration (mean ± SD): 21.0 ± 1.74 ng/mL and 21.0437 ng/mL
[2]; 3 freeze-thaw cycles, QC concentration 1000 ng/mL
  Stability in plasma, measured concentration (mean ± SD): 942 ± 21.5 ng/mL and 941.9 ng/mL
[2]; 3 freeze-thaw cycles, QC concentration 5000 ng/mL
  Stability in plasma, measured concentration (mean ± SD): 4532 ± 63.0 ng/mL and 4531.84 ng/mL
[2]; 7 days at -80°C, QC concentration 20 ng/mL
  Stability in plasma, measured concentration (mean ± SD): 20.6 ± 1.03 ng/mL and 20.6026 ng/mL
[2]; 7 days at -80°C, QC concentration 1000 ng/mL
  Stability in plasma, measured concentration (mean ± SD): 920 ± 31.6 ng/mL and 920.324 ng/mL
[2]; 7 days at -80°C, QC concentration 5000 ng/mL
  Stability in plasma, measured concentration (mean ± SD): 4563 ± 143 ng/mL and 4562.63 ng/mL
[2]; QC sample 20 ng/mL, 3 freeze-thaw cycles
  Stability, measured concentration, mean ± SD: 21.0 ± 1.74 ng/mL
[2]; QC sample 20 ng/mL, 7 days at -80°C
  Stability, measured concentration, mean ± SD: 20.6 ± 1.03 ng/mL
[2]; QC sample 20 ng/mL, Room temperature 24h
  Stability, measured concentration, mean ± SD: 21.1 ± 0.78 ng/mL
[2]; QC sample 1000 ng/mL, 3 freeze-thaw cycles
  Stability, measured concentration, mean ± SD: 942 ± 21.5 ng/mL
[2]; QC sample 1000 ng/mL, 7 days at -80°C
  Stability, measured concentration, mean ± SD: 920 ± 31.6 ng/mL
[2]; QC sample 1000 ng/mL, Room temperature 24h
  Stability, measured concentration, mean ± SD: 1003 ± 39.5 ng/mL
[2]; QC sample 5000 ng/mL, 3 freeze-thaw cycles
  Stability, measured concentration, mean ± SD: 4532 ± 63.0 ng/mL
[2]; QC sample 5000 ng/mL, 7 days at -80°C
  Stability, measured concentration, mean ± SD: 4563 ± 143 ng/mL
[2]; QC sample 5000 ng/mL, Room temperature 24h
  Stability, measured concentration, mean ± SD: 4765 ± 218 ng/mL
[2]; Room temperature 24h, QC concentration 20 ng/mL
  Stability in plasma, measured concentration (mean ± SD): 21.1 ± 0.78 ng/mL and 21.1244 ng/mL
[2]; Room temperature 24h, QC concentration 1000 ng/mL
  Stability in plasma, measured concentration (mean ± SD): 1002.91 ng/mL and 1003 ± 39.5 ng/mL
[2]; Room temperature 24h, QC concentration 5000 ng/mL
  Stability in plasma, measured concentration (mean ± SD): 4764.7 ng/mL and 4765 ± 218 ng/mL
[2]; [3]
  stability, Accuracy (measured versus nominal concentration): 105.22%
  stability, mean ± SD (measured concentration): 21.0 ± 1.74 ng/mL
[2]; [4]
  stability, Accuracy (measured versus nominal concentration): 103.01%
  stability, mean ± SD (measured concentration): 20.6 ± 1.03 ng/mL
[2]; [5]
  stability, Accuracy (measured versus nominal concentration): 105.62%
  stability, mean ± SD (measured concentration): 21.1 ± 0.78 ng/mL
[2]; [6]
  stability, Accuracy (measured versus nominal concentration): 94.19%
  stability, mean ± SD (measured concentration): 942 ± 21.5 ng/mL
[2]; [7]
  stability, Accuracy (measured versus nominal concentration): 92.03%
  stability, mean ± SD (measured concentration): 920 ± 31.6 ng/mL
[2]; [8]
  stability, Accuracy (measured versus nominal concentration): 100.29%
  stability, mean ± SD (measured concentration): 1003 ± 39.5 ng/mL
[2]; [9]
  stability, Accuracy (measured versus nominal concentration): 90.64%
  stability, mean ± SD (measured concentration): 4532 ± 63.0 ng/mL
[2]; [10]
  stability, Accuracy (measured versus nominal concentration): 91.25%
  stability, mean ± SD (measured concentration): 4563 ± 143 ng/mL
[2]; [11]
  stability, Accuracy (measured versus nominal concentration): 95.29%
  stability, mean ± SD (measured concentration): 4765 ± 218 ng/mL
